pIC50: −log10 of the molar value. Where two headings read alike, the source gives them in different places.
Columns and labels:
[1] = test system: A431 (EGFR-WT) cells; test: Inhibitory activity on proliferation of A431 (EGFR-WT) cells (CTG, 72 h); type: cell-based; details: Homo sapiens, A-431
In short: (§1)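 Cells plated at 1000/well (NCI-H1975, RPMI1640+10% FBS) or 3000/well (A431, DMEM+10% FBS), dosed next day with compounds (0.1% DMSO final) for 72 h at 37 °C, 5% CO2. Viability by CTG luminescence, normalised to vehicle control; IC50 from nonlinear-regression dose-survival curves.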

[2] = test system: NCI-H1975 (EGFR-L858R-T790M) cells; test: Inhibitory activity on proliferation of NCI-H1975 (EGFR-L858R-T790M) cells (CTG, 72 h); type: cell-based; details: Homo sapiens
In short: as §1

[3] = target: T1, EGFR protein in NCI-H1975 EGFR-L858R-T790M-C797S cells (Homo sapiens, UniProt P00533, C797S/L858R/T790M); test: Degradation activity on EGFR protein in NCI-H1975 EGFR-L858R-T790M-C797S cells, Method I (western blot, 72 h); type: cell-based; details: 72 h incubation, EGFR protein relative to DMSO control
T1 construct: expressed in transfected cells; host or cells: NCI-H1975 EGFR-L858R-T790M-C797S (kept under hygromycin selection)
Procedure: Protein sample preparation: NCI-H1975 EGFR-L858R-T790M-C797S cells were cultured in an incubator at 37° C. with 5% CO2, and the culture medium was RPMI1640+10% FBS+100 μg/mL hygromycin. The cells in the logarithmic phase were collected, and the cell suspension was adjusted to an appropriate concentration with a hygromycin-free culture medium, plated on a 6-well plate at a density of 200000 cells/well and a volume of 2 mL, and cultured overnight in an incubator at 37° C. with 5% CO2. The next day, the compounds at different concentrations were added. DMSO control wells were provided, wherein the concentration of DMSO in all wells was 0.1%. The 6-well plate was cultured in an incubator at 37° C. with 5% CO2 for 72 h, and then 30 μL of RIPA lysates (Beyotime, Cat. P0013B) containing protease inhibitors (Beyotime, Cat. P0013B) were added. The mixtures were lysed on ice for 30 min. Centrifugation was carried out at 13000 rpm/min at 4° C. for 20 min to collect protein supernatant samples, and protein quantification was performed by the BCA method. Samples for western blot detection were prepared.
Western blot detection: 20 μg of protein samples were added to each well, subjected to polyacrylamide gel electrophoresis and transferred to a membrane, and then diluted anti-EGFR (CST, Cat. 4267S) and […] (Kangchen, Cat. KC-5G4) antibodies were added and incubated overnight at 4° C. After washing the membrane, diluted goat anti-rabbit (Licor, Cat. 926-32211) and goat anti-mouse (Licor, Cat. 926-68070) antibodies were added and incubated in the dark for 45 min. Scanning and detection at wavelengths of 700 nm and 800 nm were performed with a far-infrared imaging system (Odyssey).
According to formula (3), the expression level of EGFR protein in the cells relative to the DMSO control group was calculated after incubation with different concentrations of compounds. wherein EGFRcompound was the fluorescence value of EGFR protein after incubation with compounds, and EGFRvehicle was the fluorescence value of EGFR protein in the DMSO control group. Using the Origin 9.2 software, the drug concentration DC50 values when the expression level of EGFR protein was 50% relative to the DMSO control group were calculated.

[4] = test system: NCI-H1975 EGFR-L858R-T790M-C797S cells; test: Inhibitory activity on proliferation of NCI-H1975 EGFR-L858R-T790M-C797S cells (CellTiter-Glo, 72 h); type: cell-based; details: Homo sapiens
Procedure: NCI-H1975 EGFR-L858R-T790M-C797S cells were cultured in an incubator at 37° C. with 5% CO2, and the culture medium was RPMI1640+10% FBS+100 μg/mL hygromycin. The cells in the logarithmic phase were collected, and the cell suspension was adjusted to an appropriate concentration with a hygromycin-free culture medium, and then plated on a 96-well plate at a density of 1500 cells/well and a volume of 90 μL. 10 μL of the compounds at different concentrations were added, and a vehicle control group (cells plus DMSO) was provided, wherein the concentration of DMSO was 0.1%. The cell culture plate was cultured in an incubator at 37° C. with 5% CO2 for 72 hours. After the incubation was completed, according to operation instructions for a CellTiter-Glo kit (Promega, G7572), 50 μL of CTG solution, which was already pre-melted and equilibrated to room temperature, was added to each well, and the mixtures were uniformly mixed for 2 min using a microplate shaker. The plate was placed at room temperature for 10 min, and then […] signal values were measured using a microplate reader (Envision 2104). […] was processed based on formula (2), and using the GraphPad Prism 5.0 software and nonlinear regression model, S-shaped dose-survival curves were plotted, and IC50 values were calculated. wherein Vsample was the readout of the drug-treated group, and Vvehicle control was the readout of the control group.

[5] = Pharmacokinetic test in mice; type: in vivo; details: male, ICR, mouse, po, administration i.g. (10 mg/kg), plasma
In short: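 Male ICR mice (20-25 g), fasted 12-14 h before dosing and fed 4 h after, received a single intravenous or intragastric dose. Orbital plasma sampled from 0 to 24 h (5 min-24 h points); LC-MS/MS quantitation for PK parameters and bioavailability.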

[6] = read-out: IC50 (value in brackets)

T1 sequence (P00533 25-1210 T790M/C797S/L858R): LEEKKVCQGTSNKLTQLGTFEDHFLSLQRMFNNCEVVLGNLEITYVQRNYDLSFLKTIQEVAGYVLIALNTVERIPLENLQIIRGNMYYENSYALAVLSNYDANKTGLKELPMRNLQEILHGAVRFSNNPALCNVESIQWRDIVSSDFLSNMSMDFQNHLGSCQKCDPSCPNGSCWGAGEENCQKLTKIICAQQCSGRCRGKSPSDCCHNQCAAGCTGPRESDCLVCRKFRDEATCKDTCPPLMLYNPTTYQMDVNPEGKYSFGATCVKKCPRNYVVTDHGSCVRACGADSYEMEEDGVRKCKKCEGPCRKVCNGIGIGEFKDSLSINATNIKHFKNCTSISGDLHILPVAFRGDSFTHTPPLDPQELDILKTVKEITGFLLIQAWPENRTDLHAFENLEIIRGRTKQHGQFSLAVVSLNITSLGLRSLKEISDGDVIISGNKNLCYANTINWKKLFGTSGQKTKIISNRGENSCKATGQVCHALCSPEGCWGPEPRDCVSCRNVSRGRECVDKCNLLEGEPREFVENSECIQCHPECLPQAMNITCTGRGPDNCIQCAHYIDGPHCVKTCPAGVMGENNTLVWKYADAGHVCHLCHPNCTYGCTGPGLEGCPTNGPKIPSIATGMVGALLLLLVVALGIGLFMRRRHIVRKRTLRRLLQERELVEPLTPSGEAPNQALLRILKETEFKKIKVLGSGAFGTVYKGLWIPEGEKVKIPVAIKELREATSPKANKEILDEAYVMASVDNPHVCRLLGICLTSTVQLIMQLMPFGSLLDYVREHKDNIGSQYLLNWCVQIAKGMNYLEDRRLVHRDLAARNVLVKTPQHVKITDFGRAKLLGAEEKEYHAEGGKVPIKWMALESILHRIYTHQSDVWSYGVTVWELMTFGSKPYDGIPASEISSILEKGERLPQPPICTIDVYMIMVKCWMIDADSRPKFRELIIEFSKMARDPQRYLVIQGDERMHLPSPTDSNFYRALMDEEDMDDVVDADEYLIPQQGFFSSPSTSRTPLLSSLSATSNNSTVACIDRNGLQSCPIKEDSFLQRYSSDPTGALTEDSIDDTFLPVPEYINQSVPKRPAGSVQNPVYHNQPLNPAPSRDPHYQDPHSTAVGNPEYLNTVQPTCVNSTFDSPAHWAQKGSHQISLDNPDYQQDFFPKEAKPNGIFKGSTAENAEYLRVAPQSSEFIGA

| Compound | pIC50 [1] | pIC50 ([2]; read-out: IC50 (class symbol)) | pIC50 [2, 6] | DC50 [3] [nM] | pIC50 ([4]; read-out: IC50 (class symbol)) | pIC50 ([4]; read-out: IC50 (value)) | AUC(0-t) [5] [ng·h/mL] | AUC [5] [ng·h/mL] | half-life [5] [h] |
| --- | --- | --- | --- | --- | --- | --- | --- | --- | --- |
| COc1cc(N2CCC3(CCN(CC4CCN(c5ccc6c(c5)C(=O)N(C5CCC(=O)NC5=O)C6=O)CC4)CC3)CC2)c(-c2cnn(C)c2)cc1Nc1ncc(Cl)c(Nc2ccc(-c3ccccc3)cc2P(C)(C)=O)n1 (stereo not shown) [Compound 59, 5-(4-((9-(4-((5-chloro-4-((3-(dimethylphosphoryl)-[1,1′-biphenyl]-4-yl)amino)pyrimidin-2-yl)amino)-5-methoxy-2-(1-methyl-1H-pyrazol-4-yl)phenyl)-3,9-diazaspiro[5.5]undecan-3-yl)methyl)piperidin-1-yl)-2-(2,6-dioxopiperidin-3-yl)isoindoline-1,3-dione] | ≤ 5.00 | > 7.00 | 7.04 | < 100 |  |  | 4460 |  |  |
| COc1cc(N2CCC(N3CCC4(CCCN(c5ccc6c(c5)C(=O)N(C5CCC(=O)NC5=O)C6=O)C4)CC3)CC2)c(-c2cnn(C)c2)cc1Nc1ncc(Cl)c(Nc2ccc(-c3ccccc3)cc2P(C)(C)=O)n1 (stereo not shown) [Compound 60, 5-(9-(1-(4-((5-chloro-4-((3-(dimethylphosphoryl)-[1,1′-biphenyl]-4-yl)amino)pyrimidin-2-yl)amino)-5-methoxy-2-(1-methyl-1H-pyrazol-4-yl)phenyl)piperidin-4-yl)-2,9-diazaspiro [5.5]undecan-2-yl)-2-(2,6-dioxopiperidin-3-yl)isoindoline-1,3-dione] | ≤ 5.00 | > 7.00 | 7.47 | < 100 |  |  | 3200 |  |  |
| COc1cc(N2CCC(N3CCC4(CCCN(c5ccc6c(c5)C(=O)N(C5CCC(=O)NC5=O)C6=O)C4)CC3)CC2)c(-c2cnn(C)c2)cc1Nc1ncc(Br)c(Nc2ccc(-c3ccccc3)cc2P(C)(C)=O)n1 (stereo not shown) [Compound 62, 5-(9-(1-(4-((5-bromo-4-((3-(dimethylphosphoryl)-[1,1′-biphenyl]-4-yl)amino)pyrimidin-2-yl)amino)-5-methoxy-2-(1-methyl-1H-pyrazol-4-yl)phenyl)piperidin-4-yl)-2,9-diazaspiro[5.5]undecan-2-yl)-2-(2,6-dioxopiperidin-3-yl)isoindoline-1,3-dione] | ≤ 5.00 | > 7.00 | 7.55 | < 100 |  |  | 2310 |  |  |
| COc1cc(N2CCN(CC3CCN(c4ccc5c(c4)C(=O)N(C4CCC(=O)NC4=O)C5=O)C3)CC2)c(-c2cnn(C)c2)cc1Nc1ncc(Br)c(Nc2ccc(-c3ccccc3)cc2P(C)(C)=O)n1 (stereo not shown) [Compound 67, 5-(3-((4-(4-((5-bromo-4-((3-(dimethylphosphoryl)-[1,1′-biphenyl]-4-yl)amino)pyrimidin-2-yl)amino)-5-methoxy-2-(1-methyl-1H-pyrazol-4-yl)phenyl)piperazin-1-yl)methyl)pyrrolidin-1-yl)-2-(2,6-dioxopiperidin-3-yl)isoindoline-1,3-dione] | ≤ 5.00 | > 7.00 | 7.43 | < 100 | > 6.70 | 6.94 |  | 70900 | 3.86 |
| COc1cc(N2CCC(N3CCN(CC4CCN(c5ccc6c(c5)C(=O)N(C5CCC(=O)NC5=O)C6=O)CC4)CC3)CC2)c(-c2cnn(C)c2)cc1Nc1ncc(Br)c(Nc2ccc(-c3ccccc3)cc2P(C)(C)=O)n1 (stereo not shown) [Trifluoroacetate of compound 23, 5-(4-((4-(1-(4-((5-bromo-4-((3-(dimethylphosphoryl)-[1,1′-biphenyl]-4-yl)amino)pyrimidin-2-yl)amino)-5-methoxy-2-(1-methyl-1H-pyrazol-4-yl)phenyl)piperidin-4-yl)piperazin-1-yl)methyl)piperidin-1-yl)-2-(2,6-dioxopiperidin-3-yl)isoindoline-1,3-dione] | ≤ 5.00 | > 7.00 | 7.39 | < 100 | > 6.70 | 7.08 |  |  |  |

Other lines, results leading:

| pIC50 [1] | pIC50 ([2]; read-out: IC50 (class symbol)) | pIC50 [2, 6] | DC50 [3] [nM] | pIC50 ([4]; read-out: IC50 (class symbol)) | pIC50 ([4]; read-out: IC50 (value)) | AUC(0-t) [5] [ng·h/mL] | AUC [5] [ng·h/mL] | half-life [5] [h] | Compound |
| --- | --- | --- | --- | --- | --- | --- | --- | --- | --- |
| ≤ 5.00 | 6.30 to 7.00 | 6.82 | < 100 | 6.30 to 6.70 | 6.52 |  |  |  | COc1cc(N2CCC(N3CCN(CC4CCN(c5ccc6c(c5)C(=O)N(C5CCC(=O)NC5=O)C6=O)CC4)CC3)CC2)c(C2CC2)cc1Nc1ncc(Br)c(Nc2ccc3nccnc3c2P(C)(C)=O)n1 (stereo not shown) [Compound 2, 5-(4-((4-(1-(4-((5-bromo-4-((5-(dimethylphosphoryl)quinoxalin-6-yl)amino)pyrimidin-2-yl)amino)-2-cyclopropyl-5-methoxyphenyl)piperidin-4-yl)piperazin-1-yl)methyl)piperidin-1-yl)-2-(2,6-dioxopiperidin-3-yl)isoindoline-1,3-dione] |
| ≤ 5.00 | > 7.00 | 7.42 | < 100 | > 6.70 | 7.49 | 21700 |  |  | COc1cc(N2CCC(CN3CCC4(CC3)CCN(c3ccc5c(c3)C(=O)N(C3CCC(=O)NC3=O)C5=O)CC4)CC2)c(-c2cnn(C)c2)cc1Nc1ncc(Br)c(Nc2ccc(-c3ccccc3)cc2P(C)(C)=O)n1 (stereo not shown) [Compound 37, 5-(9-((1-(4-((5-bromo-4-((3-(dimethylphosphoryl)-[1,1′-biphenyl]-4-yl)amino)pyrimidin-2-yl)amino)-5-methoxy-2-(1-methyl-1H-pyrazol-4-yl)phenyl)piperidin-4-yl)methyl)-3,9-diazaspiro[5.5]undecan-3-yl)-2-(2,6-dioxopiperidin-3-yl)isoindoline-1,3-dione] |
| ≤ 5.00 | > 7.00 | 7.16 | < 100 | > 6.70 | 7.25 | 29800 |  |  | COc1cc(N2CCC(N3CCN(CC4CCN(c5ccc6c(c5)C(=O)N(C5CCC(=O)NC5=O)C6=O)CC4)CC3)CC2)c(-c2cnn(C)c2)cc1Nc1ncc(Br)c(Nc2ccc(-c3ccccc3F)cc2P(C)(C)=O)n1 (stereo not shown) [Compound 54, 5-(4-((4-(1-(4-((5-bromo-4-((3-(dimethylphosphoryl)-2′-fluoro-[1,1′-biphenyl]-4-yl)amino)pyrimidin-2-yl)amino)-5-methoxy-2-(1-methyl-1H-pyrazol-4-yl)phenyl)piperidin-4-yl)piperazin-1-yl)methyl)piperidin-1-yl)-2-(2,6-dioxopiperidin-3-yl)isoindoline-1,3-dione] |
| ≤ 5.00 | > 7.00 | 7.68 | < 100 | > 6.70 | 7.19 |  |  |  | COc1cc(N2CCC3(CCN(CC4CCN(c5ccc6c(c5)C(=O)N(C5CCC(=O)NC5=O)C6=O)CC4)CC3)CC2)c(-c2cnn(C)c2)cc1Nc1ncc(Br)c(Nc2ccc(-c3ccccc3)cc2P(C)(C)=O)n1 (stereo not shown) [Compound 57, 5-(4-((9-(4-((5-bromo-4-((3-(dimethylphosphoryl)-[1,1′-biphenyl]-4-yl)amino)pyrimidin-2-yl)amino)-5-methoxy-2-(1-methyl-1H-pyrazol-4-yl)phenyl)-3,9-diazaspiro[5.5]undecan-3-yl)methyl)piperidin-1-yl)-2-(2,6-dioxopiperidin-3-yl)isoindoline-1,3-dione] |
